# Measured values from patent US20230302022A1, “PREVENTING OR MITIGATING CHEMOTHERAPY INDUCED ALOPECIA USING VITAMIN D” (priority 2016, published 2023).
# Entries after “also recorded” stand apart in the source; their conditions may differ.
# Assays:
# [1] = system: MIAC51 (chloroleukemia cells); assay: Chloroleukemia (MIAC51) in rats: cure / survival under chemotherapy with topical calcitriol; type: in vivo, rat
# Protocol: For experiments in which rats were transplanted with chloroleukemia, on Day 5 after birth, rats were randomly divided into three groups of 45 each. All rats received 1×10^5 chloroleukemic cell line MIAC51 (i.p.) in 0.1 mL of serum free (SF) RPMI. MIAC51 were cultured in RPMI 1640 supplemented with L-glutamine and 10% fetal bovine serum at 37° C. in a 5% CO2, 100% humidity incubator. Cells were grown to 50% confluency (1.5×106 mL) collected in 50 mL conical tubes, centrifuged at 600 g×10 min. at room temperature and resuspended in SF-RPMI at a concentration of 1×10^6/mL. Group 1 rats received no further treatment. Group 2 rats received topical vehicle and CTX on day 13. […] Topical applications were performed as described above.
# On day 23 after birth, a sample of blood was taken from all rats and differentials performed. Rats with leukemia were sacrificed, rats without leukemia were kept and a second differential performed on day 31, at any point if leukemia was detected, animals were sacrificed by CO2 asphyxiation.
# On day 5 after birth all rats received 1×105 MIAC51 intraperitoneally in 0.1 mL of serum free (SF) RPMI. MIAC51 were cultured in RPMI 1640 supplemented with L-glutamine and 10% fetal bovine serum at […] in a 5% CO2, 100% humidity incubator. Cells were grown to 50% confluency (1.5×106 mL) collected in 50 mL conical tubes, centrifuged at 600 g for 10 minutes at room temperature and resuspended in SF-RPMI at a concentration of 1×10^6/mL prior to injection.
# […]
# HepG2 (liver cancer) = assay: Cell growth / viability assay, HepG2; type: cell-based
# Protocol: (§1) The drug treatment period was usually three days. At the end of the three days, the background OD of the 96-well plate was read at 280 nm, before 20 μL of the “Substrate Cell Titer 96 Aqueous One Solution Reagent” (Promega) was added to each well. The plate was returned to the 37° C. incubator, and its OD at 490 nm was read each hour until an OD of approximately 1.5 was reached. The net OD increase was calculated by subtracting the pre-substrate OD reading.
# The impact of the drug on the cells was calculated by comparing the OD at different concentrations in relation to the OD of the control wells (without the drug).
# (§2) Then these pretreated cells were utilized to set up the cell based assay.
# guinea pigs = assay: Skin sensitization study in guinea pigs; type: in vivo, guinea pig; details: 5.7 μg/g
# Protocol: Induction phase. […] The induction exposure was repeated at the same skin site once a week for 2 weeks. The vehicle and positive control groups composed of 5 male and 5 female guinea pigs, each of which were exposed in the same manner as the treatment group to propylene glycol/anhydrous ethanol or hexylcinnamic aldehyde (a known mild to moderate skin-sensitizer), respectively. Skin reactions were scored and recorded at approximately 24 hours after patch removal during the induction phase. After the last induction exposure, the animals remained untreated for two weeks before the challenge exposure.
# Challenge phase. The challenge exposure was conducted two weeks after the final topical induction. The test article was topically applied to the Vehicle Control and Test Group at the concentration determined to be non-irritating in the irritation screen. The Vehicle Control Group was also challenged with the Vehicle. The Positive Control Groups received the positive control article. The challenge application sites were scored at approximately 24 and 48 hours after patch removal.
# BALB/c mice = details: cited from earlier work
# SKMEL-28 (melanoma) = assay: Cell growth / viability assay, SKMEL-28; type: cell-based
# Protocol: (§3) The drug treatment period was usually three days. At the end of the three days, the background OD of the 96-well plate was read at 280 nm, before 20 μL of the “Substrate Cell Titer 96 Aqueous One Solution Reagent” (Promega) was added to each well. […] The net OD increase was calculated by subtracting the pre-substrate OD reading. The impact of the drug on the cells was calculated by comparing the OD at different concentrations in relation to the OD of the control wells (without the drug). The results of the Net OD as a function of drug concentration was plotted and used to determine ED50 values.
# [2] = system: SkBr-3 (breast adenocarcinoma cancer, Her2 overexpressed); assay: Cell growth / viability assay, SkBr-3; type: cell-based
# Protocol: as §3
# Gottingen Minipigs = assay: 4-week dermal toxicity study in Gottingen Minipigs; details: twice daily, 29 consecutive days, 2.1 mL
# Protocol: Observations for morbidity, mortality, injury, and the availability of food and water were conducted twice daily for all animals. Clinical observations were conducted weekly.
# HEKa cells = assay: HEKa keratinocyte growth / viability assay, with and without chemotherapy drugs; type: cell-based, human
# Protocol: All experiments were conducted in 96-well plate format. Each well contained the same amount of HEKa cells in about 100 μL of media (usually between 2,000-5,000 cell/well). Calcitriol was dissolved in ethanol to make a stock solution. The stock solution was serially diluted 1:2 in the growth media, covering a range of between 4.0 μg/mL to about 15.5 ng/mL (9 test concentrations). […] All experiments were conducted in duplicates.
# In these experiments, a selected commercial drug was serially diluted, starting at a concentration 4-times higher than the final desired concentration for cell incubation.
# as §1
# The impact of the drug on the cells was calculated by comparing the OD at different concentrations in relation to the OD of the control wells (without the drug). The results of the Net OD as a function of drug concentration was plotted and used to determine ED50 values.
# as §2
# Three commonly used chemotherapy drugs (doxorubicin, cisplatin and erlotinib) were selected to evaluate calcitriol treated cells. […] In these experiments, the commercial drugs were serially diluted, starting at a concentration 4-times higher than the final desired concentration for cell incubation.
# [3] = 0.1 μg/mL calcitriol, low dosage levels
smiles,measurement,setting,value
"C=C1/C(=C\C=C2/CCC[C@]3(C)[C@@H]([C@H](C)CCCC(C)(C)O)CC[C@@H]23)C[C@@H](O)C[C@@H]1O [Calcitriol, (5Z,7E)-9,10-secocholesta-5,7.10(19Hriene-1 a,33.25-triol]","Survival Rate, %","[1]; ADM, Paclitaxel and Etoposide, after Two Rounds",80%
same,"Survival Rate, %","[1]; CTX and ADM, after Two Rounds",50%
same,"Survival Rate, %","[1]; CTX, ADM and ARA-C, after Two Rounds",78%
same,"Survival Rate, %","[1]; CTX, Paclitaxel and Etoposide, after Two Rounds",83%
same,"Survival Rate, %","[1]; CTX, after Two Rounds of Chemotherapy",25%
same,protection of the cancer cells from chemotherapy (cyclophosphamide),"[1]; Long Evans rats injected with MIAC51, topical calcitriol",does not protect the cancer cells from chemotherapy; also recorded: have not shown protection; also recorded: not protecting the cancer cells
same,effect on the cure rate associated with cyclophosphamide,"[1]; chloroleukemia induced (MIAC51), calcitriol 1-3 μg/mL study",did not affect the cure rate
same,interference with the cure rate,"[1]; cyclophosphamide and doxorubicin group, cure rate 50-55%",did not interfere with the cure rate
same,interference with the cure rate,"[1]; cyclophosphamide group, cure rate 20-25%",did not interfere with the cure rate
same,interference with the cure rate,"[1]; cyclophosphamide, doxorubicin and cytarabine group, cure rate 75-80%",did not interfere with the cure rate
same,interference with the cure rate,"[1]; cyclophosphamide, paclitaxel and etoposide group, cure rate 78-83%",did not interfere with the cure rate
same,interference with the cure rate,"[1]; doxorubicin, paclitaxel and etoposide group, cure rate 80-83%",did not interfere with the cure rate
same,effect on the efficacy of the chemotherapy agents,[1]; number of animals free from leukemia,did not affect the efficacy of the chemotherapy agents
same,effect of calcitriol on the cytotoxic effect of Doxorubicin,HepG2 (liver cancer); Hep-G2,did not appear to appreciably alter
same,5-FU ED50 curve with vs without calcitriol,"HepG2 (liver cancer); Hep-G2, 0.1 μg/mL calcitriol",not significantly different
same,"response to doxorubicin, cisplatin and erlotinib after calcitriol exposure","HepG2 (liver cancer); Hep-G2, 0.1 μg/mL calcitriol for two passages",did not alter
same,skin sensitization,guinea pigs,not determined to be a sensitizer
same,protective effect in tumor-bearing female mice,"BALB/c mice; EMT-6, vs female mice without tumor and tumor-bearing males",more efficient protective effect
same,protective effect in tumor-bearing male mice,BALB/c mice; EMT-6 tumor cells,diminished
same,degree of CIA,"BALB/c mice; male BALB/c mice, topical 5 days prior to cyclophosphamide",significantly reduced the degree of CIA in a dose-dependent manner
same,apoptosis staining pattern vs unexposed mice,"BALB/c mice; mouse, in vivo",no significant differences in apoptosis staining pattern
same,effect of calcitriol on cell growth,SKMEL-28 (melanoma); SKMEL-28,no significant growth promoting or growth inhibiting effects
same,effect of calcitriol on the cytotoxic effect of Doxorubicin,SKMEL-28 (melanoma); SKMEL-28,did not appear to appreciably alter
same,5-FU ED50 curve with vs without calcitriol,"SKMEL-28 (melanoma); SKMEL-28, 0.1 μg/mL calcitriol",not significantly different
same,effect of calcitriol on cell growth,[2],no significant growth promoting or growth inhibiting effects
same,effect of calcitriol on the cytotoxic effect of Doxorubicin,[2],does not appreciably alter; also recorded: did not appear to appreciably alter
same,no-observed-adverse-effect-level (NOAEL),Gottingen Minipigs,10.31 µg/mL
same,protective effect against 5-FU,HEKa cells; 0.1 μg/mL calcitriol,protects; also recorded: mild protective effect; also recorded: some levels of protection
same,protective effect against doxorubicin,HEKa cells; 0.1 μg/mL calcitriol,did not appear to provide a significant protective effect
same,protective effect against gemcitabine,HEKa cells; 0.1 μg/mL calcitriol,mild protective effect
same,protective effect against irinotecan,HEKa cells; 0.1 μg/mL calcitriol,positive protective effect
same,protective effect against paclitaxel (Paxlitaxol),HEKa cells; 0.1 μg/mL calcitriol,some protective effects
same,protective effect against tamoxifen,HEKa cells; 0.1 μg/mL calcitriol,weak
same,HEKa growth after prolonged calcitriol exposure,HEKa cells; 0.1 μg/mL calcitriol for two cell passages,stopped growing
same,protection against carboplatin,HEKa cells; [3],moderate level of protection
same,protection against cisplatin,HEKa cells; [3],moderate level of protection
same,"protective effect against kinase inhibitor drugs (erlotinib, gefitinib, sorafenib, dasatinib, staurosporin)","HEKa cells; 0.1 μg/mL calcitriol, low drug dosage levels",protected the HEKa cells
same,interaction (synergy) between calcitriol and commercial drugs,"HEKa cells; 0.1 μg/mL calcitriol, 5-FU, doxorubicin, tamoxifen, irinotecan, paclitaxel, carboplatin, staurosporin, vincristine, cisplatin, erlotinib, gemcitabine, imatinib, gefitinib, sorafenib, dasatinib",no interaction
same,chemoprotective effect: pre-treatment group vs simultaneous treatment group,"HEKa cells; 0.1 μg/mL calcitriol, doxorubicin, cisplatin, erlotinib",nearly identical
same,stimulation of HEKa cell growth,HEKa cells; lowest levels of calcitriol (tested range about 0.008-2.0 μg/mL),10-20%
same,calcitriol concentration at which HEKa cell growth is inhibited,HEKa cells; tested range about 0.008-2.0 μg/mL,≥ 1.0 µg/mL
